Measured values published in patent US12528761B2, “Thyromimetics” (Autobahn Therapeutics, Inc., priority 2020, dated 2026).

What was measured:
TRα = molecular target: T1, TRα (Homo sapiens, UniProt P10827); test: TR reporter-gene assay (Gal4 DBD hybrid, luciferase), TRα; format: cell-based; conditions: HEK293-derived reporter cells, 24 hr treatment; read-out: TRα EC50
T1 construct: expressed in transfected cells; host or cells: HEK293
T1 sequence (P10827 1-410 isoform P10827-2): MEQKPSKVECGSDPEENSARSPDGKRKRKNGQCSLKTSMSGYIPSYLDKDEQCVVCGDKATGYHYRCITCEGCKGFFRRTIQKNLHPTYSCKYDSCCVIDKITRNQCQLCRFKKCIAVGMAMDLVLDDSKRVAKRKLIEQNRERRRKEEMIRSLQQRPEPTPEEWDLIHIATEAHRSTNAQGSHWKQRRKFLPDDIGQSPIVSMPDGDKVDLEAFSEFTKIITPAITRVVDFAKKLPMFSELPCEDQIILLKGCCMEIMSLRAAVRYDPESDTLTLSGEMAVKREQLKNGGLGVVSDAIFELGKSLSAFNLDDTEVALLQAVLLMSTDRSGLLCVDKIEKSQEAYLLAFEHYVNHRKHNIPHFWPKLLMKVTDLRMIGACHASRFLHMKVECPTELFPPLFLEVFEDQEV
Procedure: (§1) Compounds were tested for thyroid-hormone receptor activity using TR reporter-gene assays. Reporter cells used in the assays express a TR-receptor hybrid (either TRα or TRβ) in which the native N-terminal DNA binding domain (DBD) has been replaced with that of the yeast Gal4 DBD. The reporter gene, firefly luciferase, is functionally linked to the Gal4 upstream activation sequence (UAS). Both cell lines were derived from human embryonic kidney (HEK293).
(§2) Step 1: A suspension of reporter cells was prepared in cell recovery medium containing 10% charcoal-stripped FBS, and dispensed into assay plates. The plates were pre-incubated for 6 hours in a cell culture incubator (37° C./5% CO2/85% humidity).
(§3) These intermediate stocks were subsequently diluted directly into compound screening medium containing 10% charcoal-stripped FBS to generate “2×-concentration” treatment media (containing 0.2, 0.4 or 0.8% DMSO).
(§4) Step 3: At the end of the pre-incubation period, culture media were discarded from the assay plates, and all wells received 100 μl of compound screening medium. 100 μl of each of the previously prepared “2×-concentration” treatment media were dispensed into duplicate assay wells, thereby achieving the desired final treatment concentrations. The final concentration of DMSO in all assay wells was 0.1, 0.2 or 0.4%. Assay plates were incubated for 24 hr in a cell culture incubator (37° C./5% CO2/85% humidity).
(§5) Step 4: At the 24 h assay endpoint, treatment media were discarded and 100 µl/well of luciferase detection reagent was added. Relative luminometer units (RLUs) were quantified from each assay well.

TRβ = molecular target: T2, TRβ (Homo sapiens, UniProt P10828); test: TR reporter-gene assay (Gal4 DBD hybrid, luciferase), TRβ; format: cell-based; conditions: for EC50: HEK293-derived reporter cells, 24 hr treatment, read-out: TRβ EC50
T2 construct: expressed in transfected cells; host or cells: HEK293
T2 sequence (P10828 217-461 limits assumed): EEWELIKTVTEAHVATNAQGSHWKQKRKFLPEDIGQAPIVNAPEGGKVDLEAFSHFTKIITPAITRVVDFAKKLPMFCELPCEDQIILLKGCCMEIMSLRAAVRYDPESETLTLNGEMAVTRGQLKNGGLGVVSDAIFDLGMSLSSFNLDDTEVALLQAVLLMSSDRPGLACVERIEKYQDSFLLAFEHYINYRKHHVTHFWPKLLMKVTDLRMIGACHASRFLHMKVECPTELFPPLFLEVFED
Procedure: as §1, §2, §3, §4, §5

Structure (SMILES)	EC50 (TRα)	EC50 (TRβ)	T3-SI (selectivity index, EC50 (TRα)/EC50 (TRβ)) (TRβ; class symbols)	T3-SI (selectivity index, EC50 (TRα)/EC50 (TRβ)) (TRβ; given as a number)
CC(C)c1cc(Cc2c(Cl)cc(C[S+]([O-])CC(=O)O)cc2Cl)ccc1O (stereo not drawn) [Compound 96, 2-((3,5-dichloro-4-(4-hydroxy-3-isopropylbenzyl)benzyl)sulfinyl)acetic acid]	> 1000 nM	> 1000 nM	+ (T3-SI ≤ 3×)	–
CC(C)c1c(O)ccc(Cc2c(Cl)cc(CC(N)C(=O)O)cc2Cl)c1F (stereo not drawn) [Compound 207, 2-amino-3-(3,5-dichloro-4-(2-fluoro-4-hydroxy-3-isopropylbenzyl)phenyl)propanoic acid]	> 1000 nM	100 to 1000 nM	+ (T3-SI ≤ 3×)	–
CC(C)c1cc(Cc2c(Cl)cc(NCC(=O)O)cc2Cl)ccc1O [Compound 20, (3,5-dichloro-4-(4-hydroxy-3-isopropylbenzyl)phenyl)glycine]	10 to 100 nM	10 to 100 nM	++ (3× < T3-SI ≤ 30×)	–
CC(C)c1c(O)ccc(Cc2c(Cl)cc(/C=C/C(=O)O)cc2Cl)c1F [Compound 88, (E)-3-(3,5-dichloro-4-(2-fluoro-4-hydroxy-3-isopropylbenzyl)phenyl)acrylic acid]	< 10 nM	< 10 nM	+ (T3-SI ≤ 3×)	–
CC(C)c1c(O)ccc(Cc2c(Cl)cc(NC(=O)C(=O)O)cc2Cl)c1F [Compound 213, 2-((3,5-dichloro-4-(2-fluoro-4-hydroxy-3-isopropylbenzyl)phenyl)amino)-2-oxoacetic acid]	100 to 1000 nM	100 to 1000 nM	–	7.15
CC(C)c1c(O)ccc(Cc2c(Cl)cc(C(C)C(=O)O)cc2Cl)c1F (stereo not drawn) [Compound 60, 2-(3,5-dichloro-4-(2-fluoro-4-hydroxy-3-isopropylbenzyl)phenyl)propanoic acid]	100 to 1000 nM	100 to 1000 nM	++ (3× < T3-SI ≤ 30×)	–
CC(C)c1c(O)ccc(Cc2c(Cl)cc(CSCC(=O)O)cc2Cl)c1F [Compound 200, 2-((3,5-dichloro-4-(2-fluoro-4-hydroxy-3-isopropylbenzyl)benzyl)thio)acetic acid]	< 10 nM	< 10 nM	++ (3× < T3-SI ≤ 30×)	–
CONC(=O)Cc1cc(Cl)c(Cc2ccc(O)c(C(C)C)c2F)c(Cl)c1 [Compound 104, 2-(3,5-dichloro-4-(2-fluoro-4-hydroxy-3-isopropylbenzyl)phenyl)-N-methoxyacetamide]	> 1000 nM	100 to 1000 nM	+++ (T3-SI > 30×)	–
Cc1c(F)c(NCC(=O)O)cc(Cl)c1Cc1ccc(O)c(C(C)C)c1F [Compound 133, (5-chloro-2-fluoro-4-(2-fluoro-4-hydroxy-3-isopropylbenzyl)-3-methylphenyl)glycine]	< 10 nM	< 10 nM	++ (3× < T3-SI ≤ 30×)	–
CC(C)c1cc(Cc2c(Cl)cc(OCCCC(=O)O)cc2Cl)ccc1O [Compound 24, 4-(3,5-dichloro-4-(4-hydroxy-3-isopropylbenzyl)phenoxy)butanoic acid]	100 to 1000 nM	100 to 1000 nM	+ (T3-SI ≤ 3×)	–
CC(C)c1c(O)ccc(Cc2c(Cl)cc(CCC(=O)O)cc2Cl)c1F [Compound 40, 3-(3,5-dichloro-4-(2-fluoro-4-hydroxy-3-isopropylbenzyl)phenyl)propanoic acid]	< 10 nM	< 10 nM	++ (3× < T3-SI ≤ 30×)	–
CC(C)c1c(O)ccc(Cc2c(Cl)cc(NCC(=O)O)cc2Cl)c1F [Compound 46, (3,5-dichloro-4-(2-fluoro-4-hydroxy-3-isopropylbenzyl)phenyl)glycine]	10 to 100 nM	< 10 nM	++ (3× < T3-SI ≤ 30×)	–
O=C(O)CCc1cc(Cl)c(Cc2ccc(O)c(-c3cc(OC(F)F)ccc3F)c2F)c(Cl)c1 [Compound 44, 3-(3,5-dichloro-4-((5′-(difluoromethoxy)-2,2′-difluoro-6-hydroxy-[1,1′-biphenyl]-3-yl)methyl)phenyl)propanoic acid]	10 to 100 nM	< 10 nM	++ (3× < T3-SI ≤ 30×)	–
CONC(=O)CCc1cc(Cl)c(Cc2ccc(O)c(C(C)C)c2F)c(Cl)c1 [Compound 106, 3-(3,5-dichloro-4-(2-fluoro-4-hydroxy-3-isopropylbenzyl)phenyl)-N-methoxypropanamide]	10 to 100 nM	10 to 100 nM	++ (3× < T3-SI ≤ 30×)	–
Cc1cc(CS(=O)(=O)CC(=O)O)cc(Cl)c1Cc1ccc(O)c(C(C)C)c1 [Compound 245, 2-((3-chloro-4-(4-hydroxy-3-isopropylbenzyl)-5-methylbenzyl)sulfonyl)acetic acid]	> 1000 nM	> 1000 nM	++ (3× < T3-SI ≤ 30×)	–
CC(C)c1cc(Cc2c(Cl)cc(OCCCCC(=O)O)cc2Cl)ccc1O [Compound 26, 5-(3,5-dichloro-4-(4-hydroxy-3-isopropylbenzyl)phenoxy)pentanoic acid]	100 to 1000 nM	100 to 1000 nM	+ (T3-SI ≤ 3×)	–
CC(C)c1cc(Cc2c(Cl)cc(/C=C/C(=O)O)cc2Cl)ccc1O [Compound 86, (E)-3-(3,5-dichloro-4-(4-hydroxy-3-isopropylbenzyl)phenyl)acrylic acid]	10 to 100 nM	10 to 100 nM	+ (T3-SI ≤ 3×)	–
Cc1c(F)c(CNCC(=O)O)cc(Cl)c1Cc1ccc(O)c(C(C)C)c1 [Compound 221, (5-chloro-2-fluoro-4-(4-hydroxy-3-isopropylbenzyl)-3-methylbenzyl)glycine]	100 to 1000 nM	100 to 1000 nM	++ (3× < T3-SI ≤ 30×)	–
CC(C)c1cc(Cc2c(Cl)cc(OC(F)(F)C(=O)O)cc2Cl)ccc1O [Compound 82, 2-(3,5-dichloro-4-(4-hydroxy-3-isopropylbenzyl)phenoxy)-2,2-difluoroacetic acid]	> 1000 nM	100 to 1000 nM	++ (3× < T3-SI ≤ 30×)	–
Cc1cc(SCC(=O)O)cc(Cl)c1Cc1ccc(O)c(C(C)C)c1 [Compound 123, 2-((3-chloro-4-(4-hydroxy-3-isopropylbenzyl)-5-methylphenyl)thio)acetic acid]	100 to 1000 nM	100 to 1000 nM	++ (3× < T3-SI ≤ 30×)	–
C/C(=C\c1cc(Cl)c(Cc2ccc(O)c(C(C)C)c2)c(Cl)c1)C(=O)O [Compound 102, (E)-3-(3,5-dichloro-4-(4-hydroxy-3-isopropylbenzyl)phenyl)-2-methylacrylic acid]	100 to 1000 nM	100 to 1000 nM	++ (3× < T3-SI ≤ 30×)	–
CC(C)c1cc(Cc2c(Cl)cc(C[S+]([O-])CC(=O)O)cc2Cl)ccc1O (stereo not drawn) [Compound 210, 2-((3,5-dichloro-4-(4-hydroxy-3-isopropylbenzyl)benzyl)sulfinyl)acetic acid]	> 1000 nM	> 1000 nM	++ (3× < T3-SI ≤ 30×)	–
CC(C)c1cc(Cc2c(Cl)cc(/C=C\C(=O)O)cc2Cl)ccc1O [Compound 100, (Z)-3-(3,5-dichloro-4-(4-hydroxy-3-isopropylbenzyl)phenyl)acrylic acid]	100 to 1000 nM	> 1000 nM	+ (T3-SI ≤ 3×)	–
CC(C)c1c(O)ccc(Cc2c(Cl)cc(CC(=O)O)c(F)c2Cl)c1F [Compound 69, 2-(3,5-dichloro-2-fluoro-4-(2-fluoro-4-hydroxy-3-isopropylbenzyl)phenyl)acetic acid]	10 to 100 nM	< 10 nM	++ (3× < T3-SI ≤ 30×)	–
Cc1cc(NCC(=O)O)cc(Cl)c1Cc1ccc(O)c(C(C)C)c1 [Compound 125, (3-chloro-4-(4-hydroxy-3-isopropylbenzyl)-5-methylphenyl)glycine]	10 to 100 nM	10 to 100 nM	++ (3× < T3-SI ≤ 30×)	–
